# Laboratory results as given in patent US20180338964A1, “3-(PIPERIDIN-4-YL)-ISOXAZOL-3(OH)-ONES FOR TREATMENT OF DERMATOLOGIC DISORDERS” (Emeriti Pharma AB, priority 2014, published 2018).
# pIC50, pKd: −log10 of the molar value.
# Assays:
# plasminogen kringle 1 = molecular target: T1, plasminogen kringle 1 (Homo sapiens, UniProt P00747); test: NMR competition assay (1D T1rho) for binding to plasminogen kringle 1, tranexamic acid as reference
# T1 construct: Signal intensities from free tranexamic acid are reduced when recombinant kringle 1 protein is added
# Method: The NMR experiment identifies compounds binding to the lysine binding pocket in a competition assay where tranexamic acid was used as reference compound and 1D T1rho experiments were used for detection. Signal intensities from free tranexamic acid are reduced when recombinant kringle 1 protein is added due to binding to this protein. The NMR signals from tranexamic acid regain intensity when an added compound displaces it from the lysine binding pocket of kringle 1.
# The compounds were run one-by-one at a concentration between 15 and 300 μM. The concentration of protein and tranexamic acid were 10 and 100 μM respectively. A test compound resulting in at least 10% increase in tranexamic acid intensity (displacement) was considered binding to kringle 1.
# [1] = test system: fibrinolysis in human plasma clot (tPA activation of plasminogen); settings: citrated platelet poor human plasma, tPA 80 ng/ml, 37° C.; for pIC50: read-out: IC50 (clot-lysis time prolonged to twice the vehicle value); for IC90: read-out: IC90 (clot-lysis time prolonged to nine times the vehicle value)
# [2] = test system: stratum corneum protease activity; settings: ˜13% EACA (1 M) cream, rosacea patients; cited from earlier work
# [3] = treatment of bleeding disorders; cited from earlier work
# [4] = oral TXA; cited from earlier work
# melasma = settings: cited from earlier work
# stratum corneum barrier = settings: topically applied, healthy volunteer, after experimental damage to stratum corneum; cited from earlier work
# [5] = test system: stratum corneum barrier function; settings: topical 3% (˜0.2M) TXA, rosacea patients; cited from earlier work
# T1 sequence (P00747 103-181 limits assumed): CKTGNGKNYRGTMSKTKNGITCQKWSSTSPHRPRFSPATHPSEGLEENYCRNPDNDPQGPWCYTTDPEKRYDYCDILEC
Compound,pKd (plasminogen kringle 1),also measured
"Cn1nnc([C@H]2C[C@@H](c3cc(=O)[nH]o3)CCN2)n1 [5-[(2R,4S)-2-(2-methyl-2H-1,2,3,4-tetrazol-5-yl)piperidin-4-yl]-2,3-dihydro-1,2-oxazol-3-one]",6.70,–
"CS(=O)(=O)c1ccc([C@H]2C[C@@H](c3cc(=O)[nH]o3)CCN2)cc1 [5-[(2R,4S)-2-(4-methanesulfonylphenyl)piperidin-4-yl]-2,3-dihydro-1,2-oxazol-3-one]",6.70,–
"O=c1cc([C@H]2CCN[C@@H](c3ccc(OC(F)(F)F)cc3F)C2)o[nH]1 [5-[(2R,4S)-2-[2-fluoro-4-(trifluoromethoxy)phenyl]piperidin-4-yl]-2,3-dihydro-1,2-oxazol-3-one]",6.52,–
"O=c1cc([C@H]2CCN[C@@H](c3ccc(C(F)(F)F)cc3F)C2)o[nH]1 [5-[(2R,4S)-2-[2-fluoro-4-(trifluoromethyl)phenyl]piperidin-4-yl]-2,3-dihydro-1,2-oxazol-3-one]",6.52,–
"Cc1cc([C@H]2C[C@@H](c3cc(=O)[nH]o3)CCN2)ccc1C(F)(F)F [5-[(2R,4S)-2-[3-methyl-4-(trifluoromethyl)phenyl]piperidin-4-yl]-2,3-dihydro-1,2-oxazol-3-one]",7.00,–
"O=c1cc([C@H]2CCN[C@@H](c3ccc(C(F)(F)F)c(F)c3)C2)o[nH]1 [5-[(2R,4S)-2-[3-fluoro-4-(trifluoromethyl)phenyl]piperidin-4-yl]-2,3-dihydro-1,2-oxazol-3-one]",6.70,–
"NCCCCCC(=O)O [EACA, 6-aminohexanoic acid]",–,pIC50 [1]: 4.14; IC90 [1]: 637000 nM; stratum corneum protease activity [2]: reduction in stratum corneum protease activity
"NCC1CCC(C(=O)O)CC1 (stereo not shown) [TXA, 4-(aminomethyl)cyclohexane-1-carboxylic acid]",–,"pIC50 [1]: 5.18; IC90 [1]: 55400 nM; therapeutic plasma concentration [3]: 30 to 90 µM; allergic skin reaction, fraction of treated [4]: < 1/100; effect on melasma (melasma; topical 5% (˜0.3M) TXA versus vehicle): no effect; erythema (melasma; topical 5% (˜0.3M) TXA): produced erythema; stratum corneum barrier recovery (stratum corneum barrier): enhance stratum corneum barrier recovery; stratum corneum barrier function [5]: improved stratum corneum barrier function"
"O=c1cc([C@H]2CCN[C@@H](COC3CCCCC3)C2)o[nH]1 [5-[(2R,4S)-2-[(cyclohexyloxy)methyl]piperidin-4-yl]-2,3-dihydro-1,2-oxazol-3-one]",6.52,–
"O=c1cc([C@H]2CCN[C@@H](c3ccc(Cl)cc3)C2)o[nH]1 [5-[(2R,4S)-2-(4-chlorophenyl)piperidin-4-yl]-2,3-dihydro-1,2-oxazol-3-one]",7.00,–
"O=c1cc([C@H]2CCN[C@@H](c3ccc(F)cc3)C2)o[nH]1 [5-[(2R,4S)-2-(4-fluorophenyl)piperidin-4-yl]-2,3-dihydro-1,2-oxazol-3-one]",6.22,–
"O=c1cc([C@H]2CCN[C@@H](c3ccc(C(F)(F)F)nc3)C2)o[nH]1 [5-[(2R,4S)-2-[6-(trifluoromethyl)pyridin-3-yl]piperidin-4-yl]-2,3-dihydro-1,2-oxazol-3-one]",6.55,–
"O=c1cc([C@H]2CCN[C@@H](CN3CCC[C@H]3C(F)(F)F)C2)o[nH]1 [5-[(2R,4S)-2-{[(2S)-2-(trifluoromethyl)pyrrolidin-1-yl]methyl}piperidin-4-yl]-2,3-dihydro-1,2-oxazol-3-one]",6.40,–
"O=c1cc([C@H]2CCN[C@@H](c3ccc(C(F)(F)F)cc3)C2)o[nH]1 [5-[(2R,4S)-2-[4-(trifluoromethyl)phenyl]piperidin-4-yl]-2,3-dihydro-1,2-oxazol-3-one]",7.00,–
"O=c1cc([C@H]2CCN[C@@H](CN3CCn4c(nnc4C(F)(F)F)C3)C2)o[nH]1 [5-[(2R,4S)-2-{[3-(trifluoromethyl)-5H,6H,7H,8H-[1,2,4]triazolo[4,3-a]pyrazin-7-yl]methyl}piperidin-4-yl]-2,3-dihydro-1,2-oxazol-3-one]",6.62,–
"O=c1cc([C@H]2CCN[C@@H](c3cc(F)c(F)cc3F)C2)o[nH]1 [5-[(2R,4S)-2-(2,4,5-trifluorophenyl)piperidin-4-yl]-2,3-dihydro-1,2-oxazol-3-one]",6.52,–

# Now from value to molecule, other results behind:
pKd (plasminogen kringle 1),Compound,also measured
7.00,"CC(C)(C)c1ccc(C[C@@H]2C[C@@H](c3cc(=O)[nH]o3)CCN2)cc1 [5-[(2S,4S)-2-[(4-tert-butylphenyl)methyl]piperidin-4-yl]-2,3-dihydro-1,2-oxazol-3-one]",–
7.00,"O=c1cc([C@H]2CCN[C@@H](Cc3ccc(F)c(F)c3)C2)o[nH]1 [5-[(2R,4S)-2-[(3,4-difluorophenyl)methyl]piperidin-4-yl]-2,3-dihydro-1,2-oxazol-3-one]",–
6.00,"CC(C)(C)c1cc(C[C@H]2C[C@@H](c3cc(=O)[nH]o3)CCN2)cc(C(C)(C)C)c1 [5-[(2R,4S)-2-[(3,5-di-tert-butylphenyl)methyl]piperidin-4-yl]-2,3-dihydro-1,2-oxazol-3-one]",–
6.70,"O=c1cc([C@H]2CCN[C@@H](c3ccc(Cl)cc3Cl)C2)o[nH]1 [5-[(2R,4S)-2-(2,4-dichlorophenyl)piperidin-4-yl]-2,3-dihydro-1,2-oxazol-3-one]",–
6.70,"O=c1cc([C@H]2CCN[C@@H](c3ccc(F)cc3F)C2)o[nH]1 [5-[(2R,4S)-2-(2,4-difluorophenyl)piperidin-4-yl]-2,3-dihydro-1,2-oxazol-3-one]",–
6.55,"CC(C)(C)c1cccc([C@H]2C[C@@H](c3cc(=O)[nH]o3)CCN2)c1 [5-[(2R,4S)-2-(3-tert-butylphenyl)piperidin-4-yl]-2,3-dihydro-1,2-oxazol-3-one]",–
6.62,"O=c1cc([C@H]2CCN[C@@H](Cc3ccc(C(F)(F)F)c(F)c3)C2)o[nH]1 [5-[(2R,4S)-2-{[3-fluoro-4-(trifluoromethyl)phenyl]methyl}piperidin-4-yl]-2,3-dihydro-1,2-oxazol-3-one]",–
7.00,"O=c1cc([C@H]2CCN[C@@H](Cc3ccc(F)cc3F)C2)o[nH]1 [5-[(2R,4S)-2-[(2,4-difluorophenyl)methyl]piperidin-4-yl]-2,3-dihydro-1,2-oxazol-3-one]",–
6.40,"CS(=O)(=O)c1ccc(C[C@H]2C[C@@H](c3cc(=O)[nH]o3)CCN2)cc1 [5-[(2R,4S)-2-[(4-methanesulfonylphenyl)methyl]piperidin-4-yl]-2,3-dihydro-1,2-oxazol-3-one]",–
6.52,"CC(C)(C)c1ccc(C[C@H]2C[C@@H](c3cc(=O)[nH]o3)CCN2)cc1 [5-[(2R,4S)-2-[(4-tert-butylphenyl)methyl]piperidin-4-yl]-2,3-dihydro-1,2-oxazol-3-one]",–
6.52,"Cc1cc(C(F)(F)F)ccc1[C@H]1C[C@@H](c2cc(=O)[nH]o2)CCN1 [5-[(2R,4S)-2-[2-methyl-4-(trifluoromethyl)phenyl]piperidin-4-yl]-2,3-dihydro-1,2-oxazol-3-one]",–
6.85,"O=c1cc([C@H]2CCN[C@@H](Cc3cc(F)c(F)c(F)c3)C2)o[nH]1 [5-[(2R,4S)-2-[(3,4,5-trifluorophenyl)methyl]piperidin-4-yl]-2,3-dihydro-1,2-oxazol-3-one]",–
